Values after ≈ are worked out from the molar mass of the structure shown.
What was measured:
[1] = Toxicity in brine shrimp; format: organism-based; conditions: artemia, in vivo
MCF7 = assay: Cytotoxicity against human MCF7 cells after 7 days; format: functional; conditions: MCF7, 168 h, read-out: ED50 (the source's name)
HT-29 = assay: Cytotoxicity against human HT-29 cells after 7 days; format: functional; conditions: for EC50: Homo sapiens, HT-29, 168 h, read-out: ED50 (the source's name)
A549 = assay: Cytotoxicity against human A549 cells after 7 days; format: functional; conditions: for EC50: Homo sapiens, A549, 168 h, read-out: ED50 (the source's name)

Structure (SMILES) | LC50 [1] [µg/mL] | EC50 (MCF7) [µg/mL] | EC50 (HT-29) [µg/mL] | EC50 (A549) [µg/mL] | ED50 (HT-29) [×10⁻¹⁵ ug/ml] | ED50 (A549) [×10⁻⁴ ug/ml]
CCCCCCCCCCCCCCC/C=C\CCCCC(N)=O | 2.45 (≈ 7.26 µM) | 2.91 (≈ 8.62 µM) | < 0.01 | 3.16 (≈ 9.36 µM) |  | 
CCCCCCCCCCC(O)C1CCC(C2CCC(C(O)CCCCCCCC[C@H](O)CC3=C[C@@H](C)OC3=O)O2)O1 (stereo partly drawn) [ASIMICIN] |  |  |  |  | <1 | 8.43
COc1cc([C@H]2OC[C@H]3[C@@H]2CO[C@@H]3c2cc(OC)c(O)c(OC)c2)cc(OC)c1O [SYRINGARESINOL] | 0.65 (≈ 1.55 µM) | 30.3 (≈ 72.4 µM) | 0.227 (≈ 0.542 µM) | 13.9 (≈ 33.3 µM) |  | 
CC[C@H](CC[C@@H](C)[C@H]1CC[C@H]2[C@@H]3CC=C4C[C@@H](O[C@@H]5O[C@H](CO)[C@@H](O)[C@H](O)[C@H]5O)CC[C@]4(C)[C@H]3CC[C@]12C)C(C)C [SITOGLUSIDE] | 0.14 (≈ 0.243 µM) | 44.4 (≈ 77 µM) | 0.444 (≈ 0.77 µM) | 4.73 (≈ 8.2 µM) |  | 
CCCCCCCCCC[C@@H](O)[C@H]1CC[C@H]([C@H]2CC[C@H]([C@H](O)CCCCCCCCCC[C@@H](O)CC3=C[C@H](C)OC3=O)O2)O1 [ASIMICIN] | 0.025 (≈ 0.0401 µM) |  |  |  |  | 
COc1cccc2c1C(=O)c1c(O)c3c(c(O)c1C2=O)C[C@@](O)(C(=O)CO)C[C@@H]3O[C@H]1C[C@H](N)[C@H](O)[C@H](C)O1 [DOXORUBICIN] | 0.088 (≈ 0.162 µM) | 0.231 (≈ 0.425 µM) | 0.00445 (≈ 0.00819 µM) |  |  | 5.04
COc1c(OC)c2c(C)cc3c(O)cccc3c2[nH]c1=O [ASIMICILONE] | 2.15 (≈ 7.54 µM) | 7.22 (≈ 25.3 µM) | 3.25 (≈ 11.4 µM) | 2.13 (≈ 7.47 µM) |  | 

Source: ChEMBL document CHEMBL1149751, “Bioactive constituents from the twigs of Asimina parviflora” (J Nat Prod, 1992)
